Measurements reported in patent US8822440B2, “Inhibiting cyclin D polypeptides” (Mayo Foundation for Medical Education and Research, priority 2006, dated 2014).
Values joined by “and” are separate entries in the source; they are usually repeats but may differ in a detail not shown here. Equal values may be shown once.

Legend:
[1] = system: human myeloma cell lines (HMCL); experiment: HMCL viability / cytotoxicity (MTT, MTS); format: cell-based; conditions: for IC50: Homo sapiens
Experimental: Subsequent validation studies using selected compounds in human myeloma cell lines (HMCL) confirmed successful suppression of both cyclin D2 and D1 polypeptides. Each of these compounds was then shown to be cytotoxic to a genetically diverse and standardized panel of 14 HMCL in MTT assays: monensin (10-760 nM), camptothecin (5-700 nM), dihydrogambogic acid (250-800 nM), pristimerin (150-500 nM), and kinetin riboside (2.5-20 μM). Cell cycle analysis confirmed induction of G0/G1 phase arrest for most compounds, consistent with cyclin D inhibition.
Viability assay. The effects of screened compounds on cell viability was assessed by 3-(4,5-dimethyl[…])-5-(3-carboxymethoxyphenyl)-2-(4-sulfophenyl)-2-H-tetrazolium (MTS) assay according to the manufacture's instructions (Progmega, Madison, Wis.). MTS reagent (20 μL/well in 96 well plates) was added to cells, and these were then incubated at 37° C. for 4 hours. Absorbance at 490 nm was determined using a 96-well plate reader.

[2] = system: cyclin D1, cyclin D2, cyclin D3; experiment: Immunoblot of cyclin D proteins in HMCL; format: cell-based, human
Experimental: (§1) Immunoblotting. Cytosolic extracts were prepared from HMCL or purified patient CD138^+ myeloma cells following exposure to kinetin riboside. Cells were washed with cold PBS, resuspended in cold RIPA buffer (5×10^6 cells/100 μL) containing fresh protease and phosphatase inhibitors (Santa Cruz Biotechnology, Santa Cruz, Calif.) and incubated on ice for 30 minutes with gentle mixing. The supernatant was repossessed following high speed centrifugation, and protein concentrations were determined by the Bradford assay. Immunoblot assays were performed as described elsewhere (Krajewski et al., Anal. Biochem., 236:221-228 (1996)). Briefly, equal amounts of protein were separated by SDS-PAGE and transferred to a PVDF nitrocellulose membrane using a semi-dry apparatus. Membranes were blocked using 5% skim milk in Tris buffered saline and probed with monoclonal mouse anti-cyclin D1 (DCS-6, Biosource, Camarillo, Calif.), polyclonal rabbit anti-cyclin D2 (#2924, Cell Signalling Technology), monoclonal mouse anti-cyclin D3 (DCS-22, BioSource), polyclonal rabbit anti-c-Maf (M-153, Santa Cruz), polyclonal rabbit anti-Cleaved Caspase 9 (Asp315) (Cell Signaling Technology), monoclonal mouse anti-β-actin (Cell Signaling Technology) and/or monoclonal anti-a-tubulin (B-7)(Santa Cruz Biotechnology, Santa Cruz, Calif.). Membrane proteins were visualized using HRP-conjugated species-specific secondary antibodies (Cell Signaling Technology) and enhanced chemiluminescence (Pierce, Rockford, Ill.).

caspase 9 = experiment: Immunoblot of caspase 9 cleavage in HMCL; format: cell-based, human; conditions: HMCL and CD138+ patient myeloma cells
Experimental: as §1, with “Membrane proteins were visualized using HRP-conjugated species-specific secondary antibodies (Cell Signaling Technology) and enhanced chemiluminescence (Pierce, Rockford, Ill.).” left out

HMCL [3] = experiment: Cell cycle profiling of HMCL by flow cytometry; format: cell-based, human
Experimental: Cell cycle profiling. HMCL were incubated with drug or vehicle as indicated, washed and resuspended in 1 mL PBS. Ice cold ethanol was added dropwise to 75% with regular mixing, and suspensions were incubated at −20° C. for 1 hour. Cells were washed again with PBS and resuspended in 0.1 mL RNAse A (100 μg/mL) at room temperature for 5-10 minutes. Propidium iodide (200 μL×100 μg/mL) was added immediately prior to analysis by flow cytometry. Cellular aggregates were excluded using CellQuest Doublet Discriminator Module, and cell cycle profile was determined using ModFit LT Mac 3.1 SP2 (Verity Software House, TopSham, Me.).

HMCL [4] = experiment: Annexin V / propidium iodide flow cytometry of HMCL; format: cell-based, human
Experimental: Flow cytometry. HMCL were treated as indicated and then washed in cold phosphate-buffered saline (PBS) and resuspended in buffer containing AnnexinV-FITC and propidium iodide (BD Biosciences, San Jose, Calif.) for 15 minutes at room temperature. Cells (10^5) were subsequently diluted and analyzed immediately by flow cytometry (FACScan, BD Biosciences, San Jose, Calif.) using CellQuest software. Patient bone marrow specimens were prepared and analyzed in a similar fashion using AnnexinV-FITC and anti-CD138-PE (BD Biosciences, San Jose, Calif.).

H929 and U266 HMCL = experiment: Gene expression profiling (Affymetrix) of H929 and U266; format: cell-based, human; conditions: 5 μM, 4 hours
Experimental: Gene expression profiling. H929 and U266 HMCL were treated with kinetin riboside (5 μM), an unrelated cytotoxic pristimerin (0.5 μM), or DMSO vehicle for 4 hours under normal culture conditions. RNA was then isolated using Trizol and further purified by Qiagen column, according to the manufacturer's instructions and was assessed using a BioAnalyzer 2100 (Agilent Technologies, Palo Alto, Calif.). Microarray hybridization using Affymetrix Hg_U133—2+ chips (Affymetrix, Santa Clara, Calif.) was performed as described elsewhere (Abraham et al., Blood 105, 794-803 (2005)). Gene expression intensity values were log transformed, normalized by chip and by cell line to DMSO-control treated samples and analyzed using GeneSpring 7 (Agilent Technologies, Palo Alto, Calif.). Expression values were filtered by raw intensity level to exclude non-expressed probe-sets with raw expression within one log (10) of the minimum level observed. Only probe sets with sub-threshold intensities in all samples (treated and untreated) were excluded.
Analysis of CREM gene variant transcript expression. […]

Structure (SMILES): OC[C@H]1O[C@@H](n2cnc3c(NCc4ccco4)ncnc32)[C@H](O)[C@@H]1O [kinetin riboside, N6-Furfuryladenosine]
- IC50 ([1]; 48 h, 8 out of 12 HMCL): < 1.7 µg/mL and < 5 µM
- IC50 ([1]; 48 h, 11/12 HMCL): < 5 µg/mL and < 15 µM
- IC50 ([1]; JJN-3, JJN3): ~5 µM
- IC50 ([1]; U-266, U266): > 20 µM
- cytotoxic concentration across panel of 14 HMCL ([1]; human): 2.5 to 20 µM
- lag between exposure and cyclin D1 or D2 suppression [2]: 4 to 6 h
- time to suppression of cyclin D1 and D2 proteins ([2]; H929, 10 μM): ≤ 6 h
- time until cyclin D3 levels significantly affected ([2]; H929, 10 μM): ≥ 28 h
- cyclin D3 protein levels ([2]; HMCL, 10 μM, 16 hours): did not influence cyclin D3 levels
- cyclin D1 and D2 protein levels in Kms11 ([2]; Kms11): significant suppression only of cyclin D2 but not D1
- cyclin D1 protein level in U266 ([2]; U266, 10 μM, 16 hours): suppression of cyclin D1
- cyclin D1 and/or D2 protein levels ([2]; all HMCL tested, 10 μM, 16 hours): significant suppression
- time to caspase-9 cleavage (caspase 9): ≤ 16 h
- cell cycle profile (HMCL [3]; H929 and U266, 10 μM, 20 hours): cell cycle arrest at G0/G1
- fall in proportion of cells entering S-phase (HMCL [3]; all HMCL tested, 10 μM, within 20 hours): 50-70%
- time to Annexin-V surface binding and loss of CD138 expression (HMCL [4]): 24 to 96 h
- response of H929 cells (HMCL [4]; H929, 10 μM): apoptosis
- response of U266 cells (HMCL [4]; U266, 10 μM, 96 hours): growth inhibition
- CREM isoform expression (H929 and U266 HMCL): preferential induction of CREM isoforms
- number of genes with 3-fold or greater change in expression in both H929 and U266 (H929 and U266 HMCL): approximately 35 genes
